Patent publication US12622910B2, “Inhibitors of Bruton's tyrosine kinase and methods of their use” (Janssen Pharmaceutica NV, priority 2021, dated 2026)

Assays:
BTK = BTK (Homo sapiens, UniProt Q06187); assay: BTK protein occupancy in OCI-LY10 tumor lysates of NSG mice; type: in vivo; design: free BTK protein in OCI-LY10 DLBCL tumor lysates harvested using an BTK occupancy assay; endogenous in cells; host or cells: OCI-LY10 human ABC-DLBCL cells grown as SC xenograft in NSG mice; tumour lysates; conditions: for receptor occupancy at 10 mg/kg / receptor occupancy at 30 mg/kg / receptor occupancy at 100 mg/kg: OCI-Ly10, mouse
Sequence of BTK (Q06187 whole entry): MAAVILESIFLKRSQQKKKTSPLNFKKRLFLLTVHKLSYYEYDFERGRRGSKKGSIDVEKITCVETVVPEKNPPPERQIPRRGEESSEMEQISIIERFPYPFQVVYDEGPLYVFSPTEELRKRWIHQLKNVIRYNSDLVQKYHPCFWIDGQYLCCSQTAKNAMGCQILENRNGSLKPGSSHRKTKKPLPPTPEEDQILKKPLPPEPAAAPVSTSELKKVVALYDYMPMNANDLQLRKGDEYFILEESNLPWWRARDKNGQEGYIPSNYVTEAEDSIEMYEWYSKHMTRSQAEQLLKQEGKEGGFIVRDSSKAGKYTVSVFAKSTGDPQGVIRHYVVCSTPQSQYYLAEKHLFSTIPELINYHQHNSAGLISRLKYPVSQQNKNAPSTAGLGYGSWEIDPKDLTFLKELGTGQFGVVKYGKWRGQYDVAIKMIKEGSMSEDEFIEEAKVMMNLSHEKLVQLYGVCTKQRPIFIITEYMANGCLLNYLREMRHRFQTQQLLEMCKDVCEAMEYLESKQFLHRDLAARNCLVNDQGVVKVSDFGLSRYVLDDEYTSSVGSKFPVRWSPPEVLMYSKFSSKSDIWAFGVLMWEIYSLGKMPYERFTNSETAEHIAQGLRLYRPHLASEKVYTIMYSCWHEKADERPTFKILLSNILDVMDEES
Method: FIG. 19 depicts BTK protein occupancy in OCI-LY10 ABC-DLBCL tumor lysates of NSG mice treated with the compound of Formula (III). Unoccupied BTK protein levels are graphed as % normalized to vehicle control BTK levels ±SEM. Female mice were implanted SC on the right flank on day 0. Tumors were established 39 days post implantation, randomized into experimental groups and dosed orally with a single dose (n=5/dose level/time point). Tumor samples were harvested 4, 12 and 24 hours after compound administration.
To evaluate the duration of signaling shutdown and occupancy of BTK protein after compound administration, we determined the amount of free BTK protein in OCI-LY10 DLBCL tumor lysates harvested using an BTK occupancy assay. […] BTK protein occupancy levels remained high with 71%, 94% and 96%, respectively, at 12 hours and 70%, 91% and 85%, respectively after 24 hours. (FIG. 19). The antitumor efficacy of compound of Formula (III) was assessed in mice bearing established SC OCI-LY10 human CD79b mutant DLBCL xenografts in female NSG mice, dosed either once (QD) or twice (BID) a day. Analysis of tumor growth inhibition was performed 14 days into the 21-day treatment period (Day 45) as that was the last day when 2/3 of the vehicle controls remained on the study. Compound of Formula (III) induced tumor growth inhibition in the OCI-LY10 model at all dose levels. […] Taken together, the in vivo data support a first in-human trial of the compound of Formula (III) in combination with Venetoclax in patients with B cell lymphomas.

[1] = Plasma protein binding, equilibrium dialysis; type: in vitro ADME, Sprague Dawley rat
Method: Additional Data on Preclinical PK Profile—Protein binding of the compound of Formula (III) was studied using an equilibrium dialysis method in plasma from human, cynomolgus monkey, beagle dog, Sprague Dawley rat, CD-1 mouse, and guinea pig at 0.25, 2.5, and 25 μM. […] In human and monkey, the plasma protein binding was concentration dependent. […] Free fraction of the compound of Formula (III) in liver microsomes from various species ranged from 75.1% to 87.9% at 0.25 mg/mL and from 58.9% to 86.5% at 1.0 mg/mL (Table 17). […] In hepatocytes, the compound of Formula (III) turnover followed a similar trend, with T1/2 ranging from 75.3 minutes in monkey to 278.1 minutes in human.

TEC = biological target: T1, TEC (Homo sapiens, UniProt P42680); assay: ActivX KiNativ native kinase profiling, Ramos cell lysates; type: binding
T1 construct: purchased Eurofins Scientific
T1 sequence (P42680 1-631): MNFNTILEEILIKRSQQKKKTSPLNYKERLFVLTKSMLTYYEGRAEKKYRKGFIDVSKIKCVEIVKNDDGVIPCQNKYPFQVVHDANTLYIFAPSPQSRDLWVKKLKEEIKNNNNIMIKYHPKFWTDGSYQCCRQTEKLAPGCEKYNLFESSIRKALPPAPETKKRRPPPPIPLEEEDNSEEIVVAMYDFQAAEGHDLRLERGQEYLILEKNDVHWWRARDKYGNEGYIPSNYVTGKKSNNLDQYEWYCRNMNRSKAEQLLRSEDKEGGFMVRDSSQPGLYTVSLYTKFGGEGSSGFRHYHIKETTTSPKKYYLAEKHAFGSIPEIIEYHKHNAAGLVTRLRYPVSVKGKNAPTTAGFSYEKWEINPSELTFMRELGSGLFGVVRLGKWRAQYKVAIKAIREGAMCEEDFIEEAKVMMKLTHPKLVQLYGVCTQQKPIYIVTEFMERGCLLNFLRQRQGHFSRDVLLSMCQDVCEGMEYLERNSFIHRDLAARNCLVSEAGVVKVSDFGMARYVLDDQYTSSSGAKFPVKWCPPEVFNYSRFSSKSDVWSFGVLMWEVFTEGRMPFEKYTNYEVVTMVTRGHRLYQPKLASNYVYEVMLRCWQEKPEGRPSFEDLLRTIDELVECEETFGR
Method: (§1) RESULTS AND DISCUSSION—Selectivity—The compound of Formula (III) was evaluated in three selectivity panels to assess the potential for off-target pharmacology (Table 8). […] The kinase off-target profile of The compound of Formula (III) was assessed in a full human wild-type panel using radiometric kinase activity assays (KinaseProfiler™ and IC50Profiler™; Eurofins Scientific) (Table 9; FIG. 23). The compound of Formula (III) inhibited 4/278 kinases >50% at 1 micromolar, identifying BTK and the three other kinases having analogous Cys residues with the potential for covalent inhibition (BMX, TEC, BLK). […]. The cellular kinase selectivity of The compound of Formula (III) was established in native Ramos B cell kinome assays (KiNativ™; ActivX) confirmed BTK as the primary target with inhibition of BLK and TEC inhibition detected (Table 10).

BLK = biological target: T2, BLK (Homo sapiens, UniProt P51451); assay: as above; type: binding; conditions: activation loop labelling
T2 construct: purchased Eurofins Scientific
T2 sequence (P51451 whole entry): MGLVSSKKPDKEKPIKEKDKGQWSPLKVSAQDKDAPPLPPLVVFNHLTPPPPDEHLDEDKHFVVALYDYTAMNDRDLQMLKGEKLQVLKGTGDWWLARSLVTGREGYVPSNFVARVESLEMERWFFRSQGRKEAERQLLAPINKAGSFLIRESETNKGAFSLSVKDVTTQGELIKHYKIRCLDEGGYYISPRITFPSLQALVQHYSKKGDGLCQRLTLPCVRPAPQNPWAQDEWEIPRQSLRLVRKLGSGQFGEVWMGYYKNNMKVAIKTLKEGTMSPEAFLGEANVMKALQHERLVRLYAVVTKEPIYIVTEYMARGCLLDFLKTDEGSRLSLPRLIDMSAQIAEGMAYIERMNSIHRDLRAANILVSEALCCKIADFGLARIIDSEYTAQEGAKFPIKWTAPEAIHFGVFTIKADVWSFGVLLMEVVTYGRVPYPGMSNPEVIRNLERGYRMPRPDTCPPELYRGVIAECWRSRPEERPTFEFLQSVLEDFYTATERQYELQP
Method: as §1

For C=CC(=O)N[C@H]1CCC[C@H]1NC(=O)c1sc2nccc3c2c1NC(=O)N3c1cnc(CC(C)C)cc1C (atropisomer, axis not shown) [compound of Formula (III), N-((1R,2S)-2-Acrylamidocyclopentyl)-5-(S)-(6-isobutyl-4-methylpyridin-3-yl)-4-oxo-4,5-dihydro-3H-1-thia-3,5,8-triazaacenaphthylene-2-carboxamide], the “BTK protein occupancy in tumor” value (BTK; 1 mg/kg) was “No BTK occupancy”, the “BTK protein occupancy in tumor” value (BTK; 3 mg/kg) was “No BTK occupancy” and the receptor occupancy at 10 mg/kg (BTK; 4 hours) was 54%. The receptor occupancy at 10 mg/kg (BTK; 12 hours) was 71%, the receptor occupancy at 10 mg/kg (BTK; 24 hours) was 70% and the receptor occupancy at 30 mg/kg (BTK; 4 hours) was 90%. For the same compound, the receptor occupancy at 30 mg/kg (BTK; 12 hours) was 94%, the receptor occupancy at 30 mg/kg (BTK; 24 hours) was 91% and the receptor occupancy at 100 mg/kg (BTK; 4 hours) was 95%. For the same compound, the receptor occupancy at 100 mg/kg (BTK; 12 hours) was 96%, the receptor occupancy at 100 mg/kg (BTK; 24 hours) was 85% and the “% Free in plasma” value ([1]; 0.25 μM) was 3.73%. For the same compound, the fraction unbound at 2.5 μM ([1]; Sprague Dawley, rat, plasma, 2.5 μM, read-out: % Free in plasma) was 0.0365, the fraction unbound at 25 μM ([1]; Sprague Dawley, rat, plasma, 25 μM, read-out: % Free in plasma) was 0.0405 and the inhibition at 1 µM (TEC) was 77.6%. The inhibition at 1 µM (BLK) was 61.9%.
